Measured values taken from patent publication US7390510B2, “Preparation of hypericin bonded with poly-N-vinylamides” (Sanochemia Pharmazeutika AG, priority 2000, dated 2008).

Columns and labels:
[1] = Time-dependent solubility of hypericin after complexation by PVP (absorption and fluorescence, FIG. 1); type: physicochemical
[2] = in vivo; cited from earlier work

Cc1cc(O)c2c(=O)c3c(O)cc(O)c4c5c(O)cc(O)c6c(=O)c7c(O)cc(C)c8c1c2c(c34)c(c78)c65 [hypericin]
solubility state in aqueous environment ([1]; aqueous solution, with or without PVP): forms at once insoluble aggregates | absorption in the relevant spectral region ([1]; aqueous, hypericin+PVP after 30, 60, 180 minutes): no absorption | biological half-life [2]: 34-38 h
